Reference: paper PMC7168333, “5-(Carbamoylmethylene)-oxazolidin-2-ones as a Promising Class of Heterocycles Inducing Apoptosis Triggered by Increased ROS Levels and Mitochondrial Dysfunction in Breast and Cervical Cancer” (Biomedicines, 2020)

Experiments:
[1] = tested on: MCF-7 cells; experiment: MTT cell viability assay, MCF-7; type: cell-based; settings: Homo sapiens, MCF7, 72 h
Protocol: Cell viability was assessed by using 3-(4,5-dimethylthiazol-2-y1)-2,5-diphenyltetrazolium bromide (MTT) assay (Sigma-Aldrich, Milan, Italy), as already reported. […] Untreated cells were added with the vehicle (DMSO) and used as a control. After treatment, fresh MTT reagent (used at a final concentration of 0.5 mg/mL) was added, prolonging incubation for 2 h according to the manufacturer’s protocol. Absorbance at 570 nm was measured in each well, including controls, and every experiment was carried out in triplicate.
For each sample, mean absorbance was expressed as a percentage of the control and plotted vs. drug concentration, in order to determine the IC50 value (i.e., drug concentration able to decrease cell viability by 50% with respect to the control) for each cell line, generating a sigmoidal dose–response curve by the use of GraphPad Prism 7 software (GraphPad Inc., San Diego, CA, USA). Mean values and standard deviations (SD) of three independent experiments carried out in triplicate were reported. […]

[2] = tested on: MCF-10A cells; experiment: MTT cell viability assay, MCF-10A; type: cell-based, human
[3] = tested on: MCF-7 cells; experiment: TUNEL assay, MCF-7; type: cell-based, human; settings: MCF-7, 15 µM, 72 h; control 2.3%
Protocol: Apoptosis was tested by enzymatic labeling of DNA strand breaks using terminal deoxynucleotidyl transferase-mediated deoxyuridine triphosphate nick end-labeling (TUNEL) assay, following the guidelines of the manufacturer (TUNEL assay kit, Promega, Madison, WI, USA). Briefly, MCF-7 and HeLa cells were added with DMSO or treated with 15 and 30 µM OI, respectively, for 72 h. MCF-10A were added to DMSO or treated using 30 µM OI, for 72 h. Next, nuclear staining was achieved using 0.2 mg/mL 4′,6- diamidino-2-phenylindole (DAPI, Sigma-Aldrich, Milan, Italy) and samples were examined using a fluorescent microscope (Olympus BX4 equipped with CSV1.14 software employing a CAMXC-30 for image acquisition). Images were representative of three independent experiments.

[4] = tested on: procaspases -8 and -9 in MCF-7 cells; experiment: Western blot of procaspases -8 and -9, MCF-7; type: cell-based, human; settings: MCF-7, 15 µM, 24 and 72 h
Protocol: (§1) Western blot analysis was conducted basically as previously reported. […] In order to obtain total cell lysates, harvested cells were lysed using 200 μL of lysis buffer as previously reported. Cytosolic and mitochondrial fractions were isolated as already described. Identical amounts of proteins from total lysate, mitochondrial, or cytosolic fraction were resolved on SDS-polyacrylamide gel, blotted to nitrocellulose membrane, and probed with proper primary antibodies (Santa Cruz Biotechnology, Dallas, TX, USA). Immunoreactive products were identified by using ECL Western blotting detection system (Bio-Rad Laboratories, Hercules, CA, USA).

[5] = tested on: procaspases -8 and -9 in HeLa cells; experiment: Western blot of procaspases -8 and -9, HeLa; type: cell-based, human; settings: 30 µM, 24 and 72 h
Protocol: as §1

[6] = tested on: MCF-7 cells; experiment: Mitochondrial staining (MitoTracker Orange / Deep-Red, FACS), MCF-7; type: cell-based, human; settings: MCF-7, 15 µM, 24 h
Protocol: (§2) Mitochondrial activity was assessed using MitoTracker Orange (Invitrogen, Milan, Italy), a fluorescent dye that enters mitochondria in a membrane potential-dependent way. Mitochondrial mass was determined using MitoTracker Deep-Red (Invitrogen, Milan, Italy), a far red-fluorescent dye that is largely used to label mitochondria. Both MCF-7 and HeLa cells were treated using 15 and 30 µM OI, respectively, for 24 h. Control cells were added with DMSO and simultaneously processed. Then, cells were incubated in the dark for 30–60 min at 37 °C with pre-warmed MitoTracker staining solution (diluted in PBS/CM to reach a final concentration of 10 nM). All the next steps were still carried out in the dark. Cells were rinsed in PBS, harvested, and re-suspended in 300 μL of PBS/CM. Cells were then examined by flow cytometry using Fortessa (BD Bioscience, San Jose, CA, USA). Data analysis was performed using FlowJo software (Tree Star Inc., Ashland, OR, USA).

[7] = tested on: HeLa cells; experiment: Mitochondrial staining (MitoTracker Orange / Deep-Red, FACS), HeLa; type: cell-based, human; settings: 30 µM, 24 h
Protocol: as §2

[8] = tested on: cytochrome c in MCF-7 cells; experiment: Western blot of cytochrome c in cytosolic and mitochondrial fractions, MCF-7; type: cell-based, human; settings: MCF-7, 15 µM, 24 h, vs control
Protocol: Both MCF-7 and HeLa cells were cultured in 100 mm dishes (1 × 10^7 cells/dish), added with the vehicle alone (DMSO) or treated for 24 h with 15 and 30 µM OI, respectively. Then, mitochondria extraction was performed as previously described. In brief, cells were harvested, resuspended in isolation buffer for cells (IBC, containing 200 mM sucrose, 10 mM Tris/MOPS, 1 mM EDTA/Tris, pH 7.4), and homogenized by a glass potter homogenizer. Nuclei and unbroken cells were removed by centrifugation (600× g for 10 min). Supernatants were centrifuged for 30 min at 10,000× g, obtaining upper cytosolic fractions and mitochondrial pellets; the latter were resuspended in RIPA buffer (PBS pH 7.4, 1% NP-40, 0.5% sodium deoxycholate, and 0.1% sodium dodecyl sulfate) containing a protease and phosphatase inhibitor cocktail (Sigma-Aldrich, Milan, Italy). Protein concentration was determined using Bio-Rad Protein Assay (Bio-Rad Laboratories, Hercules, CA, USA) and Western blotting was performed as next described.
Western blot analysis was conducted basically as previously reported. In detail, MCF-7 and HeLa cells were grown to 70–80% confluence, added to DMSO, or treated with 15 and 30 µM OI, respectively, for 24 h. In order to obtain total cell lysates, harvested cells were lysed using 200 μL of lysis buffer as previously reported. Cytosolic and mitochondrial fractions were isolated as already described. […]

CCN(CC)C(=O)/C=C1/OC(=O)N(Cc2ccccc2)C1(C)C [OI, (E)-2-(3-benzyl-4,4-dimethyl-2-oxooxazolidin-5-ylidene)-N,N-diethylacetamide]
IC50 [1]: 17.7 µM | IC50 ([2]; Homo sapiens, MCF-10A, 72 h): 351 µM | anti-proliferative effect / cytotoxicity on non-tumorigenic MCF-10A cells ([2]; up to 72 h): no significant anti-proliferative effect | apoptotic rate (TUNEL-positive cells) [3]: 34.3% | expression level of activated caspase-8 [4]: unaffected | proteolytic cleavage of pro-caspase-9 into its active form [4]: time-dependently activated | expression level of activated caspase-8 [5]: unaffected | proteolytic cleavage of pro-caspase-9 into its active form [5]: time-dependently activated | mitochondrial mass (MitoTracker Deep-Red) [6]: decrease | mitochondrial membrane potential (MitoTracker Orange) [6]: decrease | mitochondrial membrane potential per mitochondria (ratio Orange vs. Deep-Red) [6]: significantly decreased | mitochondrial mass (MitoTracker Deep-Red) [7]: decrease | mitochondrial membrane potential (MitoTracker Orange) [7]: decrease | mitochondrial membrane potential per mitochondria (ratio Orange vs. Deep-Red) [7]: significantly decreased | cytochrome c levels in the cytosolic fraction [8]: significant increases | cytochrome c mitochondrial levels [8]: concomitant decreases
